Laboratory results published in patent US12606518B2, “Crystalline form of L-serine and process of preparing same” (ASTROGEN, INC., priority 2024, dated 2026).

Legend:
[1] = Thermal stability test (storage at 40° C./75% RH for 8 weeks; HPLC content, visual discoloration, XRD); format: physicochemical; conditions: for L-serine content from 0 week: before storage at 40° C./75% RH; for L-serine content from 0 week / L-serine content after 8 weeks: HPLC; for L-serine content after 8 weeks / Change in Crystal / Discoloration: after 8 weeks at 40° C./75% RH; for Change in Crystal: XRD; for Discoloration: visual
Method: After 8 weeks, each sample was taken out and the content was analyzed using high-performance liquid chromatography (HPLC), and the presence of discoloration was visually confirmed as shown in FIG. 13. High-Performance Liquid Chromatography Conditions • Equipment: Waters Alliance e2695 • Column: […] 100, 150 mm×4.6 mm×5 μm • Column temperature: 30° C. • Flow rate: 1.0 mL/min • Detection: 210 nm, UV • Injection volume: 10 μL • Total analysis time: 40 mins • Mobile phase: […]

[2] = Hygroscopicity test by dynamic vapor absorption (DVS); conditions: 25° C., 2-98% relative humidity
[3] = Pharmacokinetic comparison after single oral administration; conditions: 400 mg/kg oral once
[4] = Saturated solubility in purified water; format: physicochemical; conditions: on first addition of purified water
Method: Then, 5 mL (or 10 mL) of this solution is taken, and placed into a 50 mL volumetric flask, purified water is filled to the mark and used as a test solution. • f. The test solution is analyzed according to HPLC operating conditions for the test of L-serine content.
b. The resulting solution is left at room temperature for 5 minutes and then vigorously mixed using a vortexer for 30 seconds.
c. The process b is repeated 6 times (about 30 minutes) and then the resultant is left at room temperature until the floating materials are settled.
d. The supernatant of the solution is placed into a 2.0 mL eppendorf tube and is subject to perform centrifugation using a centrifuge at 23° C. and 4,000 rpm for 20 minutes.
e. 1 mL of the supernatant of the solution is taken and placed into a 100 mL volumetric flask, and purified water is filled to the mark. Then, 5 mL (or 10 mL) of this solution is taken and placed into a 50 mL volumetric flask, purified water is filled to the mark, and used as a test solution.
f. The test solution is analyzed according to HPLC operating conditions for the test of L-serine content.

[5] = mice, n=5, after baseline correction, 400 mg/kg

Compound | L-serine content from 0 week [1] [% →] | L-serine content after 8 weeks [1] [%] | Change in Crystal [1] | Discoloration [1] | relative humidity at which moisture absorption started [2] | AUC0-12 [3, 5] [µg·h/mL] | AUC0-inf [3, 5] [µg·h/mL] | CI/F [3, 5] | Cmax ([3]; mouse, blood, po, 400 mg/kg, Cmax, mice, n=5, after baseline correction) [µg/mL] | MRT inf ([3]; mouse, blood, po, 400 mg/kg, MRT0-inf, mice, n=5, after baseline correction) [h] | Tmax ([3]; mouse, blood, po, 400 mg/kg, Tmax, mice, n=5, after baseline correction) [h] | half-life ([3]; mouse, blood, po, 400 mg/kg, t1/2, mice, n=5, after baseline correction) [h] | Cmax [3, 5] [µg/mL] | MRT0-inf [3, 5] [h] | Tmax [3, 5] [h] | t1/2 [3, 5] [h] | difference in maximum blood concentration (Cmax) compared to amorphous form and type A crystalline form ([3]; mice) | increase of AUC0-12 compared to amorphous form and type A crystalline form of L-serine ([3]; mice) [times] | Remark (hardening phenomenon during dissolution) [4]
N[C@@H](CO)C(=O)O [Comparative Example 1, L-serine] | 99.0 | 90.4 | change in part | change to off- | 40% | 100.53 ± 20.15 | 121.45 ± 17.20 | 3.35 ± 0.43 (mg/kg)/(μg/mL)/h | 67.5 ± 25.9 | 5.11 ± 0.8 | 0.25 | 4.15 ± 0.99 |  |  |  |  |  |  | 
N[C@@H](CO)C(=O)O [Comparative Example 2, L-serine] | 99.1 | 93.7 | retained | change to off- | around 70% | 165.81 ± 40.99 | 177.36 ± 39.9 | 3.19 ± 0.67 (mg/kg)/(μg/mL)/h |  |  |  |  | 77.69 ± 8.49 | 3.44 ± 1.49 | 0.50 | 2.56 ± 0.76 |  |  | 
N[C@@H](CO)C(=O)O [Example 3, L-serine] | 99.3 | 99.2 | retained | no change | around 80% | 248.89 ± 37.34 | 296.22 ± 69.63 | 2.11 ± 0.49 (mg/kg)/(μg/mL)/h |  |  |  |  | 75.48 ± 10.70 | 5.29 ± 2.10 | 0.50 | 3.56 ± 1.36 | no significant difference | ≥ 2 | The procedure went smoothly
